Reference: ChEMBL document CHEMBL1201862, “PubChem BioAssay data set” (2004)
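All cell lines were grown in 96-well plates and treated with compound for 48 hours. GI50 is the concentration that inhibits growth by half.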 Calls of active or inactive are those of the source. Rule as the data show it: active = GI50 up to about 1.1 µM and inactive = higher.

How the values were obtained:
Assay in all cases: inhibition of tumour cell growth, NCI panel, 48 h
MDA-MB-231 = test system: MDA-MB-231
MDA-MB-435 = test system: MDA-MB-435
BT-549 = test system: BT-549
Hs-578T = test system: Hs-578T
A498 = test system: A498
LXFL 529 = test system: LXFL 529
786-0 = test system: 786-0
XF498 = test system: XF498
RXF 631 = test system: RXF 631

Measured: GI50

O=C(Nc1ccc([N+](=O)[O-])cc1)Nn1cnnc1
inactive: MDA-MB-231 > 10 µM | MDA-MB-435 44.9 µM | BT-549 20.8 µM | Hs-578T 26.1 µM | A498 34.1 µM

O=c1[nH]c(=O)n(CCOCP(=O)(O)O)nc1Br
inactive: MDA-MB-231 > 100 µM | MDA-MB-435 > 100 µM | BT-549 > 100 µM | Hs-578T > 100 µM | A498 > 100 µM

Nc1cc(-c2ccccc2)nn1-c1nsc2ccccc12
inactive: LXFL 529 > 100 µM

COc1ccc(-c2cc(-c3ccccc3)n(C3OCC(OC(C)=O)C(OC(C)=O)C3OC(C)=O)c(=S)c2C#N)cc1 (centres undefined)
inactive: MDA-MB-231 > 100 µM | MDA-MB-435 > 100 µM | BT-549 > 100 µM | Hs-578T 15.3 µM | A498 72.9 µM

Cc1c(N2C(=O)/C(=C/C=C/c3ccccc3)N=C2c2ccccc2)c(=O)n(-c2ccccc2)n1C
inactive: 786-0 29.3 µM | MDA-MB-231 22.1 µM | MDA-MB-435 17 µM | BT-549 20.1 µM

O=C(O)CCC(NC(=O)c1ccc(Nc2nc3cc(C(F)(F)F)ccc3nc2-c2ccccc2)cc1)C(=O)O (centres undefined)
inactive: XF498 > 78.2 µM | A498 > 100 µM

CCOC(=O)c1c(C)c2c(n1C)CCc1c[nH]nc1-2
inactive: XF498 > 100 µM | A498 > 100 µM

COc1ccc(Oc2ccccc2N)cc1
inactive: RXF 631 > 100 µM | LXFL 529 10.4 µM | A498 > 100 µM

CCC(=C(C#N)C#N)c1cc(OC)c(OC)c(OC)c1
inactive: LXFL 529 > 100 µM | XF498 > 100 µM

COc1cc2c(cc1OC)C(C(c1ccccc1)c1ccccc1)N(C)CC2 (centres undefined)
inactive: XF498 53 µM | A498 > 100 µM

Cc1ccc(OC(=O)N2C/C(=C\c3ccccc3)C(=O)/C(=C/c3ccccc3)C2)cc1
inactive: 786-0 17.1 µM | RXF 631 40.7 µM | LXFL 529 9.98 µM | XF498 26.2 µM | MDA-MB-231 26.7 µM | BT-549 29 µM | Hs-578T 20.9 µM | A498 > 66.5 µM

CC1(C)Cc2c(C#N)c(N)c3c(c2CO1)C(=O)OC3=O
inactive: LXFL 529 > 100 µM | XF498 > 100 µM

O=c1c(C(c2ccc(C(c3c(O)oc4cc(O)ccc4c3=O)c3c(O)oc4cc(O)ccc4c3=O)cc2)c2c(O)oc3cc(O)ccc3c2=O)c(O)oc2cc(O)ccc12
inactive: MDA-MB-231 > 100 µM | MDA-MB-435 > 100 µM | BT-549 > 100 µM | Hs-578T > 100 µM | A498 > 100 µM

O=C1C=C2SC3C[C@@]24CC1[N+]1=c2c4c(c(O)c4c2=C(C=N4)CC1)N3
inactive: XF498 1.91 µM | A498 5.31 µM

Oc1cc(O)cc(/C=C/c2ccc(O)c(O)c2)c1 [PICEATANNOL]
inactive: A498 40.9 µM
